This assay has as its target T1, human kiss1 receptor (GPR54) (Homo sapiens, UniProt Q969F8).
T1 construct: host or cells: NFAT-bla CHO-K1 cells (Chinese hamster ovary), purchased recombinant cell line
As to the kind of experiment: Kiss1 receptor (GPR54) binding activity of agonists, FRET detection in NFAT-bla CHO-K1 cells. The settings on record: preliminary data, read-out: Preliminary measurement data (GPR54) EC50. The assay is classed as cell-based.

Where [1] appears, read: GPR54, measured according to the method of effect Embodiment 1.
Setting [2] is: human kiss1 receptor (GPR54), NFAT-bla CHO-K1 cells, FRET, method of effect Embodiment 1.

Read-outs that look alike come from different tables or passages of the source. Non-standard residues stand in square brackets, D forms with d. Residues, ends and D or L forms follow the SMILES beside them. *: point of attachment. X13 = CCCCCCCCCCCCCCCCSC1CC(=O)N(CCOCCOCCOCCOCCOCCOCCOCCOCCC(=O)*)C1=O; dPhe(2,4-Cl2) = N[C@H](Cc1ccc(Cl)cc1Cl)C(=O)O; Pro(4,4-F2) = O=C(O)[C@@H]1CC(F)(F)CN1; dAla(2-furyl) = N[C@H](Cc1ccco1)C(=O)O; dPhe(4-F) = N[C@H](Cc1ccc(F)cc1)C(=O)O; Arg(Me) = CNC(=N)NCCC[C@H](N)C(=O)O; Ala(cPr) = N[C@@H](CC1CC1)C(=O)O; Hyp = O=C(O)[C@@H]1C[C@@H](O)CN1; Tic = O=C(O)[C@@H]1Cc2ccccc2CN1; αMeL = CC(C)C[C@](C)(N)C(=O)O; Cba = N[C@@H](CC1CCC1)C(=O)O; Pip = O=C(O)[C@@H]1CCCCN1; Ac6c = NC1(C(=O)O)CCCCC1; Aze = O=C(O)[C@@H]1CCN1; azaGly = NNC(=O)O

T1 sequence (Q969F8 whole entry): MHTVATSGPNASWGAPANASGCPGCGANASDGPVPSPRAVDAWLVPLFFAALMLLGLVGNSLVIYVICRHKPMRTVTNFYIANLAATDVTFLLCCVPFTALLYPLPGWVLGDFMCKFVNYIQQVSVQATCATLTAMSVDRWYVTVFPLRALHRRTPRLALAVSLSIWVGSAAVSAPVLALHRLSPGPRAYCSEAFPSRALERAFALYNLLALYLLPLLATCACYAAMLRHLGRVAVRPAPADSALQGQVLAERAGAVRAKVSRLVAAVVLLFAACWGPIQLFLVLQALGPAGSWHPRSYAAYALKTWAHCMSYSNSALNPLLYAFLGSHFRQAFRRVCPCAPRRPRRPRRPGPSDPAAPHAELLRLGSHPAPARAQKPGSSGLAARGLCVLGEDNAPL

For `CNC(=N)NCCC[C@H](NC(=O)[C@H](CC(C)C)NC(=O)NNC(=O)C1(NC(=O)[C@@H](NC(=O)[C@H](CC(N)=O)NC(=O)[C@@H]2C[C@@H](O)CN2C(=O)[C@@H](Cc2ccc(O)cc2)NC(C)=O)[C@@H](C)O)CCCCC1)C(=O)N[C@@H](Cc1c[nH]c2ccccc12)C(N)=O` [YA-174, Ac-(D-Tyr)-Hyp-Asn-Thr-A6c-azaGly-Leu-Arg(Me)-Trp-NH2] (Ac-[dY][Hyp]NT[Ac6c][azaGly]L[Arg(Me)]W-NH2), the concentration giving a half-maximal response (EC50) (usually the concentration needed to bring the measured effect to its halfway point) under setting [1] was 2.6 nM.

With `CNC(=N)NCCC[C@H](NC(=O)[C@H](CC(C)C)NC(=O)NNC(=O)[C@H](Cc1ccccc1)NC(=O)[C@@H](NC(=O)[C@H](CC(N)=O)NC(=O)[C@H](CC1CC1)NC(=O)[C@@H](Cc1ccc(O)cc1)NC(C)=O)[C@@H](C)O)C(=O)N[C@@H](Cc1c[nH]c2ccccc12)C(N)=O` [YA-383, Ac-(D-Tyr)-Cpa-Asn-Thr-Phe-azaGly-Leu-Arg(Me)-Trp-NH2] (Ac-[dY][Ala(cPr)]NTF[azaGly]L[Arg(Me)]W-NH2), the concentration giving a half-maximal response (EC50) under setting [1] amounted to 0.074 nM.

As to `CNC(=N)NCCC[C@H](NC(=O)[C@H](CC(C)C)NC(=O)C1(NC(=O)[C@H](Cc2ccccc2)NC(=O)[C@@H](NC(=O)[C@H](CC(N)=O)NC(=O)[C@@H]2CC(F)(F)CN2C(=O)[C@@H](Cc2ccc(Cl)cc2Cl)NC(C)=O)[C@@H](C)O)CCCCC1)C(=O)N[C@@H](Cc1c[nH]c2ccccc12)C(=O)NC` [YA-253, Ac-D-Phe(2,4-DiCl)-DiFluorPro-Asn-Thr-Phe-A6c-Leu-Arg(Me)-Trp-NHMe] (Ac-[dPhe(2,4-Cl2)][Pro(4,4-F2)]NTF[Ac6c]L[Arg(Me)]W-NHMe), the 50% effective concentration (EC50) under setting [2] was determined as 97.8 nM.

Take `CNC(=N)NCCC[C@H](NC(=O)C(CC(C)C)C(=S)NCNC(=O)[C@H](Cc1ccccc1)NC(=O)[C@@H](NC(=O)[C@H](CC(N)=O)NC(=O)[C@@H]1C[C@@H](O)CN1C(=O)[C@@H](Cc1ccc(O)cc1)NC(C)=O)[C@@H](C)O)C(=O)N[C@@H](Cc1c[nH]c2ccccc12)C(N)=O` (single isomer, unassigned) [YA-254, Ac-(D-Tyr)-Hyp-Asn-Thr-Phe-ψ(NHCS)Gly-Leu-Arg(Me)-Trp-NH2]: under setting [1], the EC50 came to 0.03 nM.

For `CNC(=N)NCCC[C@H](NC(=O)[C@H](CC(C)C)NC(=O)[C@@H]1C[C@@H](O)CN1C(=O)[C@H](Cc1ccccc1)NC(=O)[C@@H](NC(=O)[C@H](CC(N)=O)NC(=O)C1(NC(=O)[C@@H](Cc2ccc(O)cc2)NC(C)=O)CCCCC1)[C@@H](C)O)C(=O)N[C@@H](Cc1c[nH]c2ccccc12)C(N)=O` [YA-245, Ac-(D-Tyr)-A6c-Asn-Thr-Phe-Hyp-Leu-Arg(Me)-Trp-NH2] (Ac-[dY][Ac6c]NTF[Hyp]L[Arg(Me)]W-NH2), under setting [2], the EC50 was found to be 26 nM.

With `CNC(=N)NCCC[C@H](NC(=O)[C@H](CC(C)C)NC(=O)C1(NC(=O)[C@H](Cc2ccccc2)NC(=O)[C@@H](NC(=O)[C@H](CC(N)=O)NC(=O)[C@@H]2CC(F)(F)CN2C(=O)[C@@H](Cc2ccco2)NC(C)=O)[C@@H](C)O)CCCCC1)C(=O)N1Cc2ccccc2C[C@H]1C(N)=O` [YA-224, Ac-[3-(2-furyl)-D-Ala]-DifluoroPro-Asn-Thr-Phe-A6C-Leu-Arg(Me)-Tic-NH2] (Ac-[dAla(2-furyl)][Pro(4,4-F2)]NTF[Ac6c]L[Arg(Me)][Tic]-NH2), the EC50 under setting [1] was 6.5 nM.

Take `CNC(=N)NCCC[C@H](NC(=O)[C@H](CC(C)C)NC(=O)NNC(=O)[C@H](Cc1ccccc1)NC(=O)[C@@H](NC(=O)[C@H](CC(N)=O)NC(=O)[C@H](CC1CCC1)NC(=O)[C@@H](Cc1ccc(O)cc1)NC(C)=O)[C@@H](C)O)C(=O)N[C@@H](Cc1c[nH]c2ccccc12)C(N)=O` [YA-380, Ac-(D-Tyr)-Cba-Asn-Thr-Phe-azaGly-Leu-Arg(Me)-Trp-NH2] (Ac-[dY][Cba]NTF[azaGly]L[Arg(Me)]W-NH2): the EC50 under setting [1] came out at 0.191 nM.

As to `CNC(=N)NCCC[C@H](NC(=O)[C@H](CC(C)C)NC(=O)NNC(=O)[C@H](Cc1ccccc1)NC(=O)[C@@H](NC(=O)[C@H](CC(N)=O)NC(=O)[C@@H]1C[C@@H](O)CN1C(=O)[C@@H](Cc1ccc(Cl)cc1Cl)NC(C)=O)[C@@H](C)O)C(=O)N[C@@H](Cc1c[nH]c2ccccc12)C(N)=O` [YA-42, Ac-[D-Phe(2,4-DiCl)]-Hyp-Asn-Thr-Phe-azaGly-Leu-Arg(Me)-Trp-NH2] (Ac-[dPhe(2,4-Cl2)][Hyp]NTF[azaGly]L[Arg(Me)]W-NH2), under setting [1], the EC50 was determined as 0.015 nM.

As for `CCCCCCCCCCCCCCCCSC1CC(=O)N(CCOCCOCCOCCOCCOCCOCCOCCOCCC(=O)NCC(=O)NCC(=O)N[C@H](Cc2ccc(O)cc2)C(=O)N2C[C@H](O)C[C@H]2C(=O)N[C@@H](CC(N)=O)C(=O)N[C@H](C(=O)N[C@@H](Cc2ccccc2)C(=O)NNC(=O)N[C@@H](CC(C)C)C(=O)N[C@@H](CCCNC(=N)NC)C(=O)N[C@@H](Cc2c[nH]c3ccccc23)C(N)=O)[C@@H](C)O)C1=O` (stereo partly drawn) [YA-368, M10 [Hexadecyl-S-maleimide-PEG8, G43, G44, D-Tyr45, Hyp46, des47, T49, AzaGly51, R(Me)53, W54]] (X13-GG[dY][Hyp]NTF[azaGly]L[Arg(Me)]W-NH2), the half-maximal effective concentration (EC50) under setting [1] is 0.051 nM.

For `CNC(=N)NCCC[C@H](NC(=O)[C@H](CC(C)C)NC(=O)C1(NC(=O)[C@H](Cc2ccccc2)NC(=O)[C@@H](NC(=O)[C@H](CC(N)=O)NC(=O)[C@@H]2C[C@@H](O)CN2C(=O)[C@@H](Cc2ccc(F)cc2)NC(C)=O)[C@@H](C)O)CCCCC1)C(=O)N[C@@H](Cc1c[nH]c2ccccc12)C(N)=O` [YA-195, Ac-[D-Phe(4-F)]-Hyp-Asn-Thr-Phe-A6c-Leu-Arg(Me)-Trp-NH2] (Ac-[dPhe(4-F)][Hyp]NTF[Ac6c]L[Arg(Me)]W-NH2), under setting [1], the EC50 was 0.68 nM.

Take `CNC(=N)NCCC[C@H](NC(=O)[C@H](CC(C)C)NC(=O)[C@H](CC1CCC1)NC(=O)[C@H](Cc1ccccc1)NC(=O)[C@@H](NC(=O)[C@H](CC(N)=O)NC(=O)[C@@H]1C[C@@H](O)CN1C(=O)[C@@H](Cc1ccc(O)cc1)NC(C)=O)[C@@H](C)O)C(=O)N[C@@H](Cc1c[nH]c2ccccc12)C(N)=O` [YA-284, Ac-(D-Tyr)-Hyp-Asn-Thr-Phe-Cba-Leu-Arg(Me)-Trp-NH2] (Ac-[dY][Hyp]NTF[Cba]L[Arg(Me)]W-NH2): the EC50 under setting [2] was 1.7 nM.

On to `CNC(=N)NCCC[C@H](NC(=O)[C@H](CC(C)C)NC(=O)[C@@H]1CCN1C(=O)[C@H](Cc1ccccc1)NC(=O)[C@@H](NC(=O)[C@H](CC(N)=O)NC(=O)[C@@H]1CCCCN1C(=O)[C@@H](Cc1ccc(O)cc1)NC(C)=O)[C@@H](C)O)C(=O)N[C@@H](Cc1c[nH]c2ccccc12)C(N)=O` [YA-194, Ac-D-Tyr-(S-Pip)-Asn-Thr-Phe-Aze-Leu-Arg(Me)-Trp-NH2] (Ac-[dY][Pip]NTF[Aze]L[Arg(Me)]W-NH2), for which the 50% effective concentration (EC50) under setting [1] was 0.544 nM.

On to `CNC(=N)NCCC[C@H](NC(=O)[C@H](CC(C)C)NC(=O)[C@](C)(CC(C)C)NC(=O)[C@H](Cc1ccccc1)NC(=O)[C@@H](NC(=O)[C@H](CC(N)=O)NC(=O)[C@@H]1C[C@@H](O)CN1C(=O)[C@@H](Cc1ccc(O)cc1)NC(C)=O)[C@@H](C)O)C(=O)N[C@@H](Cc1c[nH]c2ccccc12)C(N)=O` [YA-370, Ac-(D-Tyr)-Hyp-Asn-Thr-Phe-(α-Me-Leu)-Leu-Arg(Me)-Trp-NH2] (Ac-[dY][Hyp]NTF[αMeL]L[Arg(Me)]W-NH2), for which the half-maximal effective concentration (EC50) under setting [2] is 1.56 nM.

The values are drawn from patent publication US11427615B2, “Peptide compound and application thereof, and composition containing peptide compound” (XDCEXPLORER (SHANGHAI) CO., LTD., priority 2017, dated 2022).
